# Reference: US20140179726A1, “GUT MICROFLORA AS BIOMARKERS FOR THE PROGNOSIS OF CIRRHOSIS AND BRAIN DYSFUNCTION” (priority 2011, published 2014)
# Several values for one entry are separate records, joined by “and”; a condition that tells them apart may be missing. Equal values may be shown once.
# Assays:
# [1] = test system: stool microflora; test: Prospective study after lactulose withdrawal: stool microbiome on lactulose and 14 days off; format: in vivo, human
# Protocol: Prospective study: A selected group of seven cirrhotic patients in the HE group currently only on lactulose (who were also included in the cross-sectional study) were systematically withdrawn from therapy. Their diet was controlled over the study period. Their stool microflora was analyzed while on lactulose and then 14 days off of lactulose therapy. Day 14 was chosen since prior culture-based studies have shown a change in fecal flora after lactulose initiation within that time frame (31).
# Interrogation of the Microbiome: Stool was collected and DNA extracted for microbiome analysis within 24 hours of collection from patients and controls using published techniques (29). We first routinely use Length Heterogeneity PCR (LH-PCR) fingerprinting of the 16S rRNA to rapidly survey our samples and standardize the community amplification. We then interrogated the microbial taxa associated with the gut fecal microbiome using Multitag Pyrosequencing (MTPS). This technique allows the rapid sequencing of multiple samples at one time yielding thousands of sequence reads per sample (12).
# MTPS: We employed the MTPS process to characterize the microbiome from the fecal samples. Specifically, we have generated a set of 96 emulsion PCR fusion primers that contain the 454 emulsion PCR linkers on the 27F and 355R primers and a different 8 base “barcode” between the A adapter and 27F primer. Thus, each fecal sample was amplified with unique bar-coded forward 16S rRNA primers and then up to 96 samples were pooled and subjected to emulsion PCR and pyrosequenced using a GS-FLX pyrosequencer (Roche). Data from each pooled sample were “deconvoluted” by sorting the sequences into bins based on the barcodes using custom PERL scripts. Thus, we were able to normalize each sample by the total number of reads from each barcode. We have noted that ligating tagged primers to PCR amplicons distorts the abundances of the communities and thus it is critical to incorporate the tags during the original amplification step (12). Several groups have employed various barcoding strategies to analyze multiple samples and this strategy is now well accepted (38).
# RDP10 Analysis: We identified the taxa present in each sample using the Bayesian analysis tool in Version 10 of the Ribosomal Database Project (RDP10). The abundances of the bacterial identifications were then normalized using a custom PERL script and taxa present at >1% of the community were tabulated. We chose this cutoff because of our a priori assumption that taxa present in <1% of the community vary between individuals and have minimal contribution to the functionality of that community and 2,000 reads per sample will only reliably identify community components that are greater than 1% in abundance (13).
# The cirrhosis group was divided into those with and without HE and were compared. Data from the significant variables between HE and non-HE groups were combined in a MANOVA model. Within HE patients, comparison was made between those on lactulose alone to those with lactulose and rifaximin. Microbiome abundance comparisons between groups were made at a family level using non-parametric tests. A comparison was performed between patients on and withdrawn off of lactulose therapy using the Wilcoxon matched-pair signed rank tests. All values are presented as mean±standard deviation unless mentioned otherwise.
# [2] = test system: mucosal microbiome; test: Colonic mucosal microbiome by MTPS, compared using Metastats (Example 2); format: in vivo, human; conditions: colonic mucosa, HE patients
# Protocol: Interrogation of the Microbiome: Stool was collected and DNA extracted for microbiome analysis using published techniques (30). A subset underwent an un-sedated, unprepared flexible sigmoidoscopy during which a pinch biopsy of the recto-sigmoid mucosa was obtained, which was snap-frozen and stored at −80° C. till the analysis. We first use Length Heterogeneity PCR (LH-PCR) fingerprinting of the 16S rRNA to rapidly survey samples and standardize the community amplification. We then interrogated the microbial taxa associated with the gut fecal microbiome using Multitag Pyrosequencing (MTPS) (16). This technique allows for rapid sequencing of multiple samples at one time yielding thousands of sequence reads per sample.
# Microbiome Community Fingerprinting: LH-PCR was done to standardize the community analysis as previously published. Briefly, total genomic DNA was extracted from tissue using Bio101 kit from MP Biomedicals Inc., Montreal, Quebec as per the manufacturer's instructions. About 10 ng of extracted DNA was amplified by PCR using a fluorescently labeled forward primer 27F (5′-(6FAM) AGAGTTTGATCCTGGCTCA G-3′, SEQ ID NO: 1) and unlabeled reverse primer 355R′ (5′-GCTGCCTCCCGTAGGAGT-3′, SEQ ID NO: 2). Both primers are universal primers for Bacteria (23). The LH-PCR products were diluted according to their intensity on agarose gel electrophoresis and mixed with ILS-600 size standards (Promega) and HiDi Formamide (Applied Biosystems, Foster City, Calif.). The diluted samples were then separated on a ABI 3130x1 fluorescent capillary sequencer (Applied Biosystems, Foster City, Calif.) and processed using the Genemapper™ software package (Applied Biosystems, Foster City, Calif.). Normalized peak areas were calculated using a custom PERL script and operational taxonomic units (OTUs) constituting less than 1% of the total community from each sample were eliminated from the analysis to remove the variable low abundance components within the communities.
# MTPS: We employed the MTPS process to characterize the microbiome from the fecal and biopsy samples. Specifically, we have generated a set of 96 emulsion PCR fusion primers that contain the 454 emulsion PCR linkers on the 27F and 355R primers and a different 8 base “barcode” between the A adapter and 27F primer. Thus, each fecal sample was amplified with unique bar-coded forward 16S rRNA primers and then up to 96 samples were pooled and subjected to emulsion PCR and pyrosequenced using a GS-FLX pyrosequencer (Roche). Data from each pooled sample were “deconvoluted” by sorting the sequences into bins based on the barcodes using custom PERL scripts. Thus, we were able to normalize each sample by the total number of reads from each barcode. We have noted that ligating tagged primers to PCR amplicons distorts the abundances of the communities and thus it is critical to incorporate the tags during the original amplification step.
# Microbiome Community Analysis: We identified the taxa present in each sample using the Bayesian analysis tool in Version 10 of the Ribosomal Database Project (RDP10). […] We chose this cutoff because of our a priori assumption that genera present in <1% of the community vary between individuals and have minimal contribution to the functionality of that community and 2,000 reads per sample will only reliably identify community components that are greater than 1% in abundance (16). […]
# [3] = stool, baseline on lactulose, seven patients
smiles,measurement,setting,value
OC[C@H]1O[C@@H](O[C@@H]2[C@@H](CO)OC(O)(CO)[C@H]2O)[C@H](O)[C@@H](O)[C@H]1O (mixture of isomers) [lactulose],clinically recurrent HE at day 14,"[1]; after systematic withdrawal of lactulose, seven patients",None of the patients had clinically recurrent HE
same,abundance of Faecalibacterium spp. post-withdrawal,"[1]; stool, 14 days off lactulose, p=0.026 vs on lactulose",1%
same,abundance of Veillonella spp. post-withdrawal,"[1]; stool, 14 days off lactulose, trend, p=0.07",0%
same,abundance of Alcaligenaceae,[1]; [3],2.6%
same,abundance of Alistipes,[1]; [3],3%
same,abundance of Bacteroides,[1]; [3],35%
same,abundance of Clostridium spp.,[1]; [3],< 1%
same,abundance of Dialister,[1]; [3],2%
same,abundance of Faecalibacterium,[1]; [3],7% and 6%
same,abundance of Hafnia,[1]; [3],2%
same,abundance of Hallella,[1]; [3],4%
same,abundance of Lachnospira,[1]; [3],5%
same,abundance of Lactobacillus spp.,[1]; [3],< 1%
same,abundance of Parabacteroides spp.,[1]; [3],2%
same,abundance of Porphyromonadaceae,[1]; [3],1.7%
same,abundance of Prevotella,[1]; [3],13%
same,abundance of Roseburia,[1]; [3],3%
same,abundance of Ruminococcus spp.,[1]; [3],< 1%
same,abundance of Shigella spp.,[1]; [3],< 1%
same,abundance of Streptococcus spp.,[1]; [3],< 1%
same,abundance of Succinispira spp.,[1]; [3],2%
same,abundance of Sutterella spp.,[1]; [3],1%
same,abundance of Veillonella,[1]; [3],2%
same,other relative abundance change after lactulose withdrawal,"[1]; stool, day 14, including Porphyromonadaceae and Alcaligenaceae",No other significant relative abundance change
same,Lachnospiraceae_Roseburia,[2]; p 0.005,1.9 % abundance
same,Incertae Sedis XIV_Blautia,[2]; p 0.008,4.2 % abundance
same,Propionibacteriaceae_Propionibacterium,[2]; p 0.03,1.1 % abundance
same,Rikenellaceae_Alistipes,[2]; p 0.03,1.8 % abundance
same,Veillonellaceae_Other,[2]; p 0.03,1.1 % abundance
